In article PMC3921447, “Homologous and heterologous desensitization of guanylyl cyclase-B signaling in GH3 somatolactotropes” (Cell and Tissue Research, 2013):

Key:
[1] = target: T1, GC-B (Rattus norvegicus, UniProt P16067); assay: CNP time-course of total cGMP accumulation (rapid homologous desensitization) in GH3 cells; type: cell-based; settings: 100 nM CNP, 1 mM IBMX, n = 3 in triplicate
T1 construct: rapid homologous desensitization of endogenous GC-B receptors in GH3 cells; endogenous in cells; host or cells: GH3 rat somatolactotrope cells
T1 sequence (P16067 17-1047): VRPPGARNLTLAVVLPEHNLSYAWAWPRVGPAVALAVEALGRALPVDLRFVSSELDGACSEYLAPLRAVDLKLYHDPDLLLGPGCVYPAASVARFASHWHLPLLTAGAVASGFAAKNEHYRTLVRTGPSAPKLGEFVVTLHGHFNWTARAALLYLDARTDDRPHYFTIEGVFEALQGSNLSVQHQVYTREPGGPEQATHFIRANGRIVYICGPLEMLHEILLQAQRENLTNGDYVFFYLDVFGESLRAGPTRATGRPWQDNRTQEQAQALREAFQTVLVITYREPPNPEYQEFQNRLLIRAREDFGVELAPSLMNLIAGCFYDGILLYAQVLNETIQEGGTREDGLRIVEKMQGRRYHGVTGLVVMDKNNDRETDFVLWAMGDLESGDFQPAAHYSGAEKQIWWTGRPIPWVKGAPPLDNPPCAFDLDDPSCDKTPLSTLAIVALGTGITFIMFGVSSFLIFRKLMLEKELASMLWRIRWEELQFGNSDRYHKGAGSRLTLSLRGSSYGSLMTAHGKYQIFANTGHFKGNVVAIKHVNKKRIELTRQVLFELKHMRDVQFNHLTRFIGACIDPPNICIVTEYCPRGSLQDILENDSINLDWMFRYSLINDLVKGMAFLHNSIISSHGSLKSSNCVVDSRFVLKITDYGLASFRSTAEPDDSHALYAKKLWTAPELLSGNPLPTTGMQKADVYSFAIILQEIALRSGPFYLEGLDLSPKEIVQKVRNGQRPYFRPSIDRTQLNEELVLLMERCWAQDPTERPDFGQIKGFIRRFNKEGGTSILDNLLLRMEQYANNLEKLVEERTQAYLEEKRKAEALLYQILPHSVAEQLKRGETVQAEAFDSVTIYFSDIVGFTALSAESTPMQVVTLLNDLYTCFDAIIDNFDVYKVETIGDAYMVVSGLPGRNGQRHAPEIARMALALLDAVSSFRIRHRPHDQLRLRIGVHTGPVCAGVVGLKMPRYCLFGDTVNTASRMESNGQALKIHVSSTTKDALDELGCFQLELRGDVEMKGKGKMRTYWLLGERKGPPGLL
Protocol: To characterize the activity of these receptors further , a series of experiments was performed to examine mechanisms of receptor desensitization. Total cGMP accumulation was measured to determine the changes in activity of the GC-A and GC-B receptors when treated over a short time-course with their native ligands, namely ANP and CNP, respectively. GH3 cells were plated at 3 × 10^5 cells/well in a 24-well plate, treated with 100 nM of either ANP or CNP in the presence of the phosphodiesterase inhibitor IBMX (1 mM) for 0 to 15 min and assayed for total cGMP concentration (Fig. 2a, b). […] In another experiment performed with 100 nM ANP instead of CNP, a rapid increase in cGMP accumulation (7.91 ± 0.9 to 164.31 ± 9.1pmol/ml per milligram protein) occurred between 0 and 5 min.
Fig. 2 Rapid homologous desensitization of CNP-dependent but not ANP-dependent cGMP accumulation in GH3 cells. Cells were treated with PSS containing either (a) 100 nM CNP or (b) 100 nM ANP for 0–15 min in the presence of 1 mM IBMX.

[2] = test system: Npr2; assay: Npr2 mRNA expression by qPCR in GH3 cells; type: cell-based, rat; settings: 100 nM CNP, 24 h; n = 3; Fig. 4a
Protocol: Total RNA was extracted from 1 × 10^6 GH3 cells or from male Sprague Dawley rat pituitaries by using Tri-reagent (Sigma-Aldrich, Poole, UK) and subjected to DNase treatment (Qiagen, Manchester, UK) before generation of first-strand cDNA (Applied Biosystems, Warrington, UK). Polymerase chain reaction (PCR) was performed for a range of targets for 30 cycles by using the primers and conditions published previously (Thompson et al. [2009]). In some instances, GH3 cells were treated with 0 or 100 nM CNP for 24 h prior to RNA extraction. These samples were processed for […] PCR (qPCR) analyses with commercially available rat Npr2 and 18S primer sets (Qiagen, Manchester, UK) under standard SYBR conditions as described previously (Bayol et al. [2010]).
We next examined whether Npr2 or GC-B down-regulation (as determined by a reduction in Npr2 mRNA expression and or GC-B protein expression) mediated the inhibitory effects of sustained CNP exposure. The effect of CNP exposure on the expression of the endogenous Npr2 gene was examined by using qPCR. […]
Fig. 4 CNP fails to alter expression of Npr2 mRNA or GC-B protein in GH3 somatolactotrope cells. a GH3 cells were stimulated with 0 or 100 nM CNP for 24 h prior to extraction of total RNA, cDNA synthesis, and quantitative PCR for endogenous Npr2 expression. […]

[3] = test system: GC-A; settings: ref Suga et al. [1992]; cited from earlier work
Source text: (§1) As activation of either GC-B or GC-A signaling leads to an increase in cGMP concentrations, we examined whether stimulation of each receptor would lead to the desensitization of the other receptor.

[4] = test system: αT3-1 cells; settings: ref Fowkes et al. [2000]; cited from earlier work
Source text: as §1

[5] = test system: growth hormone secretion; settings: ref Hartt et al. [1995]; Shimekake et al. [1994]; cited from earlier work
Source text: Both humans and mice with mutations in the genes encoding either CNP or its receptor, GC-B, suffer from severe growth disorders (Chusho et al. [2001]) and, in some cases, growth hormone deficiency (Tamura et al. [2004]). Despite significant homology between the three natriuretic peptides and between their receptors, mutations in the genes encoding ANP, BNP, or GC-A fail to phenocopy CNP/GC-B-disrupted mice (Kishimoto et al. [2011]). Our recent observations of GC-B expression in normal fetal pituitary tissue and in a range of human pituitary adenomas (including those from acromegalics) strongly ...

CC[C@H](C)[C@@H]1NC(=O)[C@H](CCCNC(=N)N)NC(=O)[C@H](CC(=O)O)NC(=O)[C@H](CC(C)C)NC(=O)[C@H](CCCCN)NC(=O)[C@H](CC(C)C)NC(=O)CNC(=O)[C@H](Cc2ccccc2)NC(=O)[C@@H](NC(=O)CNC(=O)[C@H](CCCCN)NC(=O)[C@H](CO)NC(=O)[C@H](CC(C)C)NC(=O)CN)CSSC[C@@H](C(=O)O)NC(=O)CNC(=O)[C@H](CC(C)C)NC(=O)CNC(=O)[C@H](CO)NC(=O)[C@H](CCSC)NC(=O)[C@H](CO)NC(=O)CNC1=O [CNP, C-type natriuretic peptide]
total cGMP accumulation, 0 min ([1]; 0 min (start of time-course), mean ± SEM): 6.4 ± 0.7 pmol/ml per milligram protein
rate of cGMP accumulation between 5 to 15 min as % of the initial rate (0 to 5 min) ([1]; ***P < 0.001): 22.2 ± 3.9%
total cGMP accumulation, 5 min ([1]; 5 min, mean ± SEM): 82.7 ± 15.5 pmol/ml per milligram protein
total cGMP accumulation, 15 min ([1]; 15 min, mean ± SEM): 117.4 ± 17.6 pmol/ml per milligram protein
Npr2 mRNA expression [2]: failed to alter Npr2 expression in GH3 cells
activation of the reciprocal receptor [3]: can activate the reciprocal receptor, albeit only at pharmacological concentrations
desensitization of the other receptor [4]: fail to desensitize the other receptor
growth hormone secretion [5]: act as growth hormone secretogogs
